In ChEMBL document CHEMBL1201862, “PubChem BioAssay data set” (2004):
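All cell lines were grown in 96-well plates and treated with compound for 48 hours. GI50: concentration for 50% inhibition of growth.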 The source made the active and inactive calls. No stated cut-off is given here; in the data, active = GI50 up to about 1.1 µM and inactive = higher.

What was measured:
Experiment in all cases: inhibition of tumour cell growth, NCI panel, 48 h
SK-OV-3 = tested on: SK-OV-3
PC-3 = tested on: PC-3
COLO 205 = tested on: COLO 205
K562 = tested on: K562
MDA-N = tested on: MDA-N
BT-549 = tested on: BT-549
OVCAR-8 = tested on: OVCAR-8
MDA-MB-231 = tested on: MDA-MB-231
KM12 = tested on: KM12
MOLT-4 = tested on: MOLT-4
SF-268 = tested on: SF-268
NCI/ADR-RES = tested on: NCI/ADR-RES
Malme-3M = tested on: Malme-3M
LOX IMVI = tested on: LOX IMVI
ACHN = tested on: ACHN
HT-29 = tested on: HT-29
SK-MEL-5 = tested on: SK-MEL-5
TK-10 = tested on: TK-10
HCC 2998 = tested on: HCC 2998
RPMI-8226 = tested on: RPMI-8226
SK-MEL-2 = tested on: SK-MEL-2
MCF7 = tested on: MCF7
HOP-62 = tested on: HOP-62
SR = tested on: SR
SNB-75 = tested on: SNB-75
SK-MEL-28 = tested on: SK-MEL-28
UO-31 = tested on: UO-31
HOP-92 = tested on: HOP-92
IGROV-1 = tested on: IGROV-1
T47D = tested on: T47D
MDA-MB-435 = tested on: MDA-MB-435
SF-539 = tested on: SF-539
HCT-15 = tested on: HCT-15
SN12C = tested on: SN12C
UACC-257 = tested on: UACC-257
OVCAR-4 = tested on: OVCAR-4
NCI-H460 = tested on: NCI-H460
M14 = tested on: M14
A498 = tested on: A498
U-251 = tested on: U-251
OVCAR-5 = tested on: OVCAR-5
RXF 393 = tested on: RXF 393
DU-145 = tested on: DU-145
SF-295 = tested on: SF-295
UACC-62 = tested on: UACC-62
786-0 = tested on: 786-0
Hs-578T = tested on: Hs-578T
EKVX = tested on: EKVX
A549 = tested on: A549
NCI-H23 = tested on: NCI-H23
NCI-H522 = tested on: NCI-H522
CCRF-CEM = tested on: CCRF-CEM
SNB-19 = tested on: SNB-19
SW-620 = tested on: SW-620
NCI-H226 = tested on: NCI-H226
OVCAR-3 = tested on: OVCAR-3
HL-60 = tested on: HL-60
CAKI-1 = tested on: CAKI-1
HCT-116 = tested on: HCT-116

Measured: GI50

CC(=O)NC1=C(OS(=O)(=O)c2ccc(C)cc2)CN(C)C1=O
inactive: SK-OV-3 7.57 µM | PC-3 2.84 µM | COLO 205 5.75 µM | K562 3.61 µM | MDA-N 4.56 µM | BT-549 3.09 µM | OVCAR-8 4.22 µM | MDA-MB-231 7.82 µM | KM12 3.92 µM | MOLT-4 3.25 µM | SF-268 5.04 µM | NCI/ADR-RES 3.91 µM | Malme-3M 2.26 µM | LOX IMVI 4.6 µM | ACHN 3.32 µM | HT-29 4.92 µM | SK-MEL-5 4.11 µM | TK-10 1.94 µM | HCC 2998 2.43 µM | RPMI-8226 1.59 µM | SK-MEL-2 2.55 µM | MCF7 2.89 µM | HOP-62 2.88 µM | SR 4.6 µM | SNB-75 4.31 µM | SK-MEL-28 10.3 µM | UO-31 3.44 µM | HOP-92 2.84 µM | IGROV-1 3.39 µM | T47D 2.12 µM | MDA-MB-435 4.26 µM | SF-539 2.06 µM | SN12C 4.37 µM | UACC-257 2.49 µM | OVCAR-4 6.27 µM | NCI-H460 2.37 µM | M14 5.04 µM | A498 4.25 µM | U-251 2.7 µM | OVCAR-5 16.7 µM | RXF 393 3.3 µM | DU-145 4.2 µM | SF-295 4.1 µM | UACC-62 6.79 µM | 786-0 3.79 µM | Hs-578T 4.03 µM | EKVX 4.84 µM | A549 3.5 µM | NCI-H23 3.72 µM | NCI-H522 2.82 µM | CCRF-CEM 1.77 µM | SNB-19 3.43 µM | SW-620 4.68 µM | NCI-H226 8.73 µM | OVCAR-3 2.74 µM | HL-60 2.83 µM | CAKI-1 3.86 µM | HCT-116 3.15 µM
2.96 µM: HCT-15

O=[N+]([O-])/C=C/c1c(Cl)cccc1Cl
active: COLO 205 0.849 µM | MOLT-4 1.07 µM | RPMI-8226 0.838 µM | SR 0.933 µM | 786-0 0.809 µM | SW-620 0.966 µM
1.48 µM: HCT-15
inactive: SK-OV-3 20.8 µM | PC-3 1.77 µM | K562 1.68 µM | MDA-N 2.89 µM | BT-549 2.01 µM | OVCAR-8 1.4 µM | MDA-MB-231 1.91 µM | KM12 1.58 µM | SF-268 4.32 µM | NCI/ADR-RES 1.96 µM | Malme-3M 3.05 µM | LOX IMVI 1.37 µM | ACHN 2.48 µM | HT-29 2.45 µM | SK-MEL-5 3.13 µM | TK-10 2.67 µM | HCC 2998 3.45 µM | SK-MEL-2 5.94 µM | MCF7 1.64 µM | HOP-62 6.38 µM | SNB-75 18 µM | SK-MEL-28 4.97 µM | UO-31 3.76 µM | HOP-92 4.9 µM | IGROV-1 3.65 µM | T47D 2.06 µM | MDA-MB-435 1.77 µM | SF-539 2.37 µM | SN12C 1.53 µM | UACC-257 3.09 µM | OVCAR-4 3.56 µM | NCI-H460 2.61 µM | M14 1.48 µM | A498 16.4 µM | U-251 2.61 µM | OVCAR-5 8.95 µM | RXF 393 10.4 µM | DU-145 9.06 µM | SF-295 7.87 µM | UACC-62 2.77 µM | Hs-578T 9.44 µM | EKVX 5.65 µM | A549 8.63 µM | NCI-H23 4.46 µM | NCI-H522 1.61 µM | CCRF-CEM 1.23 µM | SNB-19 5.28 µM | NCI-H226 10 µM | OVCAR-3 1.3 µM | HL-60 1.24 µM | CAKI-1 3.66 µM | HCT-116 2.7 µM
